Laboratory results: patent US20250213550A1, “COMPOUNDS AND METHODS FOR TREATING INFLAMMATORY BOWEL DISEASE” (Gilead Sciences, Inc., priority 2023, published 2025)
Like-named read-outs stand apart in the source and are kept apart here.

Legend:
[1] = Drug-drug interaction: Compound 1 on PK of combined oral contraceptive DRSP/EE; type: in vivo, human; details: co-administration of Compound 1 (600 mg) with DRSP/EE, relative to DRSP/EE alone
Procedure: (§1) A Phase 1, open-label, single-center, multiple-cohort study was conducted to evaluate the effect of a mixed OATP/P-gp inhibitor (cyclosporine A; CsA) or food on the PK of Compound 1, the effect of Compound 1 on the PK of midazolam (MDZ), the effect of Compound 1 on the PK of OATP/CYP3A/BCRP substrates using atorvastatin (ATV), pravastatin (PRA), and rosuvastatin (ROS), and the effect of Compound 1 on the PK of a representative combined oral contraceptive (drospirenone/ethinyl estradiol; DRSP/EE), in healthy participants. 70 participants ages 18 to 55 years (inclusive) and having BMI of ≥18.0 kg/m^2 and ≤30.0 kg/m^2 were enrolled. For Cohorts 1-3, there were an approximately even distribution of healthy participants assigned male at birth and nonpregnant, nonlactating participants assigned female at birth. Cohort 4 included only healthy, nonpregnant, nonlactating participants assigned female at birth.
Participants in Cohort 4 received treatment sequence OPQR.
Treatment O: Single dose of DRSP 3 mg and EE 0.02 mg, administered under fasting condition on Day 1 of Period 1 […]
(§2) Concentrations of Compound 1 and its active metabolites Compound A and Compound B, MDZ and its metabolite 1-OH-MDZ, ATV and its metabolite 2-OH-ATV, PRA, ROS, DRSP, and EE in plasma PK samples were determined by validated high performance liquid chromatography tandem mass spectrometry (LC-MS/MS) bioanalytical methods.

[2] = Food effect on Compound A plasma PK after single dose Compound 1 600 mg; type: in vivo, human; details: for Tmax: 600 mg, read-out: median Tmax
Procedure: as §1
Participants in Cohort 1 were randomized to 1 of 2 treatment sequences (ABC or BAC), in a 1:1 ratio.
Treatment A: Single dose of Compound 1 600 mg, administered in the AM, under fasted conditions
Treatment B: Single dose of Compound 1 600 mg, administered in the AM, within 5 minutes of completing a high-fat/high-calorie meal
• Periods 1, 2, and 3: Day 1, 0 (pre-dose, ≤5 min before dose), 0.25, 0.5, 1, 1.5, 2, 3, 4, 6, 8, 12, 18, 24, 36, 48, 72, and 96 hours post-dose; and at the early termination (ET) visit, as applicable
as §2
Pharmacokinetic parameters were determined for Compound 1 and its metabolites for all cohorts, MDZ and 1-OH-MDZ for Cohort 2; ATV, 2-OH-ATV, PRA, and ROS for Cohort 3; and DRSP and EE for Cohort 4.

[3] = Compound 1 600 mg single dose, vs fasting

With `Cn1ccc2c([C@@H](c3cn(C45CC(C4)C5)nn3)N(C(=O)OCOP(=O)(O)O)c3cc(Cl)c4ncc(C#N)c(NCC(C)(C)C)c4c3)cccc2c1=O` [Compound 1] as the compound, how does the “change in AUCinf of DRSP” value [1] read?
Its value is “no change”.

What about the “change in Cmax of EE” value [1] of the same compound?
Its value is “no change”.

With `Cn1ccc2c([C@H](Nc3cc(Cl)c4ncc(C#N)c(NCC(C)(C)C)c4c3)c3cn(C45CC(C4)C5)nn3)cccc2c1=O` [Compound A] as the compound, how does the “change in Cmax by high-fat/high-calorie meal” value [2, 3] read?
The value was “no change”.

And the “increase of AUCinf by high-fat/high-calorie meal” value [2, 3]?
The value was 92%.

And the Tmax ([2]; both sexes, human, plasma, oral, Compound 1 600 mg single dose, fasting)?
Its Tmax is 4 h.

What about the Tmax ([2]; both sexes, human, plasma, oral, Compound 1 600 mg single dose, with a high-fat/high-calorie meal) of the same compound?
The Tmax was 5 h.

And the AUC(0-inf) ([2]; both sexes, human, plasma, oral, Cpd 1 600 mg single dose, fasting, Treatment A, mean)?
The AUC(0-inf) was 46300 ng·h/mL.

What about the “AUCinf % GLSM Ratio” value ([2]; non-fasting (test) vs fasting (reference), Cpd 1 600 mg) of the same compound?
Its value is 192%.
